This note sets out measurements from publication PMC6177617 (British Journal of Pharmacology, 2018).

In the experiment the target is dopamine D2 receptor (Homo sapiens, UniProt P14416). In kind it is binding.
Where [1] appears, read: kPCA, room temperature, PPHT tracer, N = 2, n = 2.

Where two headings read alike, the source gives them in different places.

Sequence of dopamine D2 receptor (P14416 whole entry): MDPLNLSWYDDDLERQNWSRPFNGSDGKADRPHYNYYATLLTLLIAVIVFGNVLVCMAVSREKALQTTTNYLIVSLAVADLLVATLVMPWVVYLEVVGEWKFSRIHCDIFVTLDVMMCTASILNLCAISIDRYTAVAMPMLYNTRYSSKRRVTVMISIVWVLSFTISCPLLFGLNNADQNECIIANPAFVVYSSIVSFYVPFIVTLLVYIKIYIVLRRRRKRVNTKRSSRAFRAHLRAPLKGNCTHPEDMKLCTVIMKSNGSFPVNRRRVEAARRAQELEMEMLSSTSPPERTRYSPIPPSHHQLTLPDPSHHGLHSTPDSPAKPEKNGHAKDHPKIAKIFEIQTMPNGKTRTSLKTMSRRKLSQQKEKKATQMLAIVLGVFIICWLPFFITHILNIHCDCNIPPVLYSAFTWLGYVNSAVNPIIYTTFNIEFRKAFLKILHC

For the molecule `O=C(CCCN1CCC(O)(c2ccc(Br)cc2)CC1)c1ccc(F)cc1` [Bromperidol], the “kon [1/(M*s)]” value is given as 2.26E + 06 1/(M*s).

Consider `Fc1ccc(CN2CCC(Nc3ccc(C(F)(F)F)nn3)CC2)cc1F` [JNJ‐37822681], for which the “kon [1/(M*s)]” value under setting [1] was 7.33E + 05 1/(M*s).

As for `FC(F)(F)c1nnc(N2CCNCC2)cc1-c1ccccc1` [JNJ‐39269646], the “kon [1/(M*s)]” value under setting [1] is given as 4.53E + 06 1/(M*s).
